Laboratory results as given in patent US20200008426A1, “ACTIVE COMPOUND COMBINATIONS” (BAYER AKTIENGESELLSCHAFT, priority 2017, published 2020).
Read-outs that look alike come from different tables or passages of the source.

Key:
[1] = test system: Fusarium culmorum; test: In vitro-Test with Fusarium culmorum; format: cell-based
[2] = test system: Sphaerotheca fuliginea; test: In vivo preventive test on Sphaerotheca (cucumbers); settings: 7 days after inoculation
[3] = test system: Rhizoctonia solani; test: In vitro-Test with Rhizoctonia solani; format: cell-based
[4] = test system: Septoria tritici; test: In vivo preventive Septoria tritici test (wheat); settings: Zymoseptoria tritici, 504 h, 21 days after inoculation, read-out: Efficacy in % found; for pest or weed control at 40 ppm: 40 ppm a.i.; for pest or weed control at 125 ppm: 125 ppm a.i.; for pest or weed control at 250 ppm: 250 ppm a.i.
Protocol: After the spray coating has been dried, the plants are sprayed with a spore suspension of Septoria tritici.
The test is evaluated 21 days after the inoculation.

[5] = test system: Puccinia triticina; test: In vivo preventive Puccinia triticina test (wheat); settings: Puccinia triticina, 192 h, 8 days after inoculation, read-out: Efficacy in % found; for pest or weed control at 20 ppm: 20 ppm a.i.; for pest or weed control at 40 ppm: 40 ppm a.i.; for pest or weed control at 80 ppm: 80 ppm a.i.; for pest or weed control at 7.5 ppm: 7.5 ppm a.i.; for pest or weed control at 15 ppm: 15 ppm a.i.; for pest or weed control at 30 ppm: 30 ppm a.i.; for pest or weed control at 250 ppm: 250 ppm a.i.
Protocol: After the spray coating has been dried, the plants are sprayed with a spore suspension of Puccinia triticina.
The test is evaluated 8 days after the inoculation.

[6] = test system: fish (Danio rerio) embryos; test: In vivo ecotoxicity screening test on fish (Danio rerio); settings: active compound alone; fish embryos, 96 h, 28.5° C.
Protocol: (§1) with ECxi the Effect Concentration (EC) of each chemical i (in ppm) causing x % effect on the ecotoxicity test endpoint.
(§2) For each compound combination, the predicted ECx value is calculated. It is then compared to an experimentally measured value. The ratio of predicted versus measured effect for the combination (thereafter called the Model Deviation Ratio or MDR) is then calculated.
(§3) The environmental effect of the compound combinations was measured experimentally in laboratory ecotoxicity screening studies with fish (Danio rerio). […] Mortality was recorded after 96 h for each tested concentration and a reference control. […] Then, the MDR values were calculated.
(§4) • Solvent: 0.5% by weight dimethyl sulfoxide
(§5) This concentrate is then diluted with water to the desired a.i. concentration, leading to a maximal solvent concentration of 0.5% by weight. The compounds alone and the combinations were tested for five increasing concentrations between 0.01 and 1000 ppm a.i., (e.g. 0.1, 1.0, 10 and 100 ppm a.i). For the combinations, compounds A and B were mixed in a weight ratio of 5:1 to 1:5 and five increasing concentrations were tested for each ratio.

[7] = test system: Ustilago avenae; test: In vitro-Test with Ustilago avenae; format: cell-based; settings: compound alone
[8] = test system: Pyricularia oryzae; format: cell-based
[9] = test system: Pyrenophora teres; test: In vitro-Test with Pyrenophora teres; format: cell-based
[10] = In vivo ecotoxicity screening test on fish (Danio rerio); settings: Danio rerio, in vivo, other: exposure of embryos to the aqueous preparation
Protocol: as §1, §2, §3, §4, §5

[11] = test system: Venturia inaequalis; test: In vivo preventive test on Venturia (apples); settings: Table E2, 10 days after inoculation
Protocol: The test is evaluated 10 days after the inoculation.

[12] = test system: Leptosphaeria nodorum; test: In vitro-Test with Leptosphaeria nodorum; format: cell-based; settings: 0.04 ppm
[13] = test system: Phakopsora pachyrhizi; test: In vivo preventive test on Phakopsora (soybeans); settings: Table C3, 7 days after inoculation
[14] = test system: Blumeria graminis f.sp. hordei; test: In vivo preventive Blumeria test (barley); settings: Table F2, 7 days after inoculation
[15] = test system: Botrytis cinerea; test: In vitro-Test with Botrytis cinerea; format: cell-based

SMILES: CC(C)C1CCC(Cc2ccc(Cl)cc2)C1(O)Cn1cncn1 (centres unmarked) [Example 1.012, ipconazole]
- Efficacy % ([1]; 0.04 ppm): 7%
- Efficacy % ([1]; 0.2 ppm): 13%
- Efficacy % ([1]; 1 ppm): 96%
- Efficacy % ([1]; 5 ppm): 99%
- Efficacy in % found ([2]; Table D1, 2.5 ppm a.i.): 26%
- Efficacy in % found ([2]; Table D1, 5 ppm a.i.): 87%
- Efficacy in % found ([2]; Table D1, 10 ppm a.i.): 100%
- Efficacy % ([3]; 0.04 ppm): 35%
- Efficacy % ([3]; 0.2 ppm): 96%
- pest or weed control at 20 ppm ([4]; 20 ppm a.i.): 0%
- pest or weed control at 40 ppm [4]: 0%
- pest or weed control at 80 ppm ([4]; 80 ppm a.i.): 0%
- pest or weed control at 20 ppm [5]: 0%
- pest or weed control at 40 ppm [5]: 44%
- pest or weed control at 80 ppm [5]: 100%
- pest or weed control at 20 ppm ([5]; Table H1): 0%
- pest or weed control at 40 ppm ([5]; Table H1): 67%
- pest or weed control at 80 ppm ([5]; Table H1): 89%
- Ecotoxicity LC50-96 h found [6]: 6.57 ppm a.i.

SMILES: CC(C)c1ccc(Cl)cc1CN(C(=O)c1c(C(F)F)nn(C)c1F)C1CC1 [Example 2.038, N-(5-chloro-2-isopropylbenzyl)-N-cyclopropyl-3-(difluoromethyl)-5-fluoro-1-methyl-1H-pyrazole-4-carboxamide]
- Efficacy % ([7]; 0.8 ppm): 43%
- Efficacy % ([7]; 4 ppm): 49%
- Efficacy % ([7]; 20 ppm): 52%
- Efficacy % ([8]; 0.8 ppm): 0%
- Efficacy % ([8]; 4 ppm): 51%
- Efficacy % ([8]; 20 ppm): 75%
- Efficacy in % found ([2]; Table D3, 1 ppm a.i.): 40%
- Efficacy in % found ([2]; Table D3, 2 ppm a.i.): 93%
- Efficacy in % found ([2]; Table D3, 4 ppm a.i.): 98%
- Efficacy % ([9]; 0.8 ppm): 57%
- Efficacy % ([9]; 4 ppm): 82%
- Efficacy % ([9]; 20 ppm): 55%
- pest or weed control at 7.5 ppm [5]: 22%
- pest or weed control at 15 ppm [5]: 33%
- pest or weed control at 30 ppm [5]: 44%
- pest or weed control at 7.5 ppm ([5]; Table H1): 33%
- pest or weed control at 15 ppm ([5]; Table H1): 33%
- pest or weed control at 30 ppm ([5]; Table H1): 33%
- LC50 at 96 h [10]: 1.74 µg/mL

SMILES: N#Cc1c(Cl)c(Cl)c(Cl)c(C#N)c1Cl [Example 5.004, chlorothalonil]
- Efficacy in % found ([11]; 12.5 ppm a.i.): 24%
- Efficacy in % found ([11]; 25 ppm a.i.): 14%
- Efficacy in % found ([11]; 50 ppm a.i.): 93%
- Efficacy % [12]: 0%
- Efficacy in % found ([13]; 25 ppm a.i.): 8%
- Efficacy in % found ([13]; 50 ppm a.i.): 0%
- pest or weed control at 62.5 ppm ([4]; 62.5 ppm a.i.): 0%
- pest or weed control at 125 ppm [4]: 0%
- pest or weed control at 250 ppm [4]: 14%
- pest or weed control at 62.5 ppm ([5]; 62.5 ppm a.i.): 0%
- pest or weed control at 250 ppm [5]: 40%
- Efficacy in % found ([14]; 62.5 ppm a.i.): 22%
- Efficacy in % found ([14]; 125 ppm a.i.): 44%
- Efficacy in % found ([14]; 250 ppm a.i.): 44%

SMILES: CC1(C)N=C(c2cnc3ccccc3c2)c2ccccc2C1(F)F [Example 15.047, 3-(4,4-difluoro-3,3-dimethyl-3,4-dihydroisoquinolin-1-yl)quinoline]
- Efficacy % ([1]; 0.04 ppm): 83%
- Efficacy % ([1]; 0.2 ppm): 100%
- Efficacy in % found ([2]; Table D2, 2.5 ppm a.i.): 0%
- Efficacy in % found ([2]; Table D2, 5 ppm a.i.): 0%
- Efficacy in % found ([2]; Table D2, 10 ppm a.i.): 8%
- Efficacy % ([15]; 1 ppm): 0%
- Efficacy % ([15]; 5 ppm): 0%
- Efficacy % ([3]; 1 ppm, compound alone): 0%
- Efficacy % ([3]; 5 ppm, compound alone): 0%
- Efficacy % ([9]; 0.04 ppm): 28%
- Efficacy % ([9]; 0.2 ppm): 76%
- Efficacy % ([9]; 1 ppm): 64%
- pest or weed control at 125 ppm [4]: 0%
- pest or weed control at 250 ppm [4]: 0%
- pest or weed control at 500 ppm ([4]; 500 ppm a.i.): 0%
- pest or weed control at 125 ppm ([5]; 125 ppm a.i.): 11%
- pest or weed control at 250 ppm [5]: 11%
- pest or weed control at 500 ppm ([5]; 500 ppm a.i.): 22%
- LC50 at 96 h [10]: 7.82 µg/mL

SMILES: CC(O)(Cn1cncn1)c1ccc(Oc2ccc(Cl)cc2)nc1C(F)(F)F (centres unmarked) [I.01, 2-[6-(4-chlorophenoxy)-2-(trifluoromethyl)pyridin-3-yl]-1-(1H-1,2,4-triazol-1-yl)propan-2-ol]
- pest or weed control at 40 ppm [4]: 63%
- pest or weed control at 20 ppm [5]: 30%
- pest or weed control at 40 ppm [5]: 50%
- pest or weed control at 80 ppm [5]: 60%
- LC50 at 96 h [10]: 6.21 µg/mL

SMILES: CC(O)(Cn1cncn1)c1ccc(Oc2ccc(Br)cc2)nc1C(F)(F)F (centres unmarked) [I.59, 2-[6-(4-bromophenoxy)-2-(trifluoromethyl)pyridin-3-yl]-1-(1H-1,2,4-triazol-1-yl)propan-2-ol]
- LC50 at 96 h [10]: 6 µg/mL
